One experiment deals with MCF-7 cells. Conditions: cited from earlier work.
For experiment [1], the system named is hormone dependent mammary cancer cells MCF-7. The experiment is described as follows: MCF-7 proliferation in hormone-free serum, 13 days incubation. The format is cell-based. Here is the method:
Methanol extracts of raw and 5-day malted NG-Perla black beans were obtained by the methods described in Examples 2 and 8, respectively, and used to test their effects on hormone dependent mammary cancer cell proliferation (MCF-7).
Since isoflavones found in black beans may show estrogenic activity, and MCF-7 are hormone dependent mammary cancer cells; tests were conducted in hormone-free serum to discard the possibility of enhanced proliferation instead of inhibition. […] Thus, MCF-7 cells were first cultured with purified commercial standards of genistein (Indofine Chemical Company, Hillsborough, N.J.) and genistin (Sigma-Aldrich Chem. Co., St. Louis, Mo.) as positive controls with the aim of testing their effects on proliferation of this cancer cell line.

The conditions of experiment [2]: literature (Dávalos, 2004); cited from earlier work.
The test system of experiment [3] is Human hormone dependent mammary cancer cells (MCF-7). Nature of the experiment: MCF-7 growth inhibition bioassay of quercetin and flavonol-rich black bean extract. The format is cell-based. To be noted: quercetin alone. From the text:
Human hormone dependent mammary cancer cells (MCF-7) were used to conduct bioassays to test growth inhibitory effects of commercially available quercetin alone and in presence of other flavonols and phytochemicals found in black bean extracts described in Table 2.

Take `O=c1c(O)c(-c2cc(O)c(O)c(O)c2)oc2cc(O)cc(O)c12` [myricetin]: the “inhibition of MCF-7 cells” value in the experiment on MCF-7 cells (regular serum conditions) is reported as “do not inhibit”.
With `O=c1c(-c2ccc(O)cc2)coc2cc(O[C@@H]3O[C@H](CO)[C@@H](O)[C@H](O)[C@H]3O)cc(O)c12` [genistin], the “proliferation inhibition of MCF-7” value in experiment [1] (even at concentrations higher than 20 μM) is listed as “did not show proliferation inhibition”.
Turning to `O=C(O)/C=C/c1ccc(O)c(O)c1` [caffeic acid], the antioxidant value in experiment [2] was 6.63 TE.
With `O=c1c(-c2ccc(O)cc2)coc2cc(O)cc(O)c12` [genistein], in experiment [1] (Homo sapiens, MCF7, 312 h, 13 days incubation, estimated by curve fit to FIG. 12, read-out: concentration required to lower the cell population doublings from 6 to 3 (50% inhibition)), the IC50 was 18.5 µM.
On to `O=c1c(O)c(-c2ccc(O)c(O)c2)oc2cc(O)cc(O)c12` [Quercetin], for which, in experiment [2], the antioxidant value is reported as 10.5 TE. For the same compound, the “inhibitory effect on MCF-7 growth” value in experiment [3] is listed as “did not have any inhibitory effect”. For the same compound, the IC50 in the experiment with MCF-7 cells (regular serum conditions (Rodgers, 1998), read-out: concentration needed to inhibit 50% of MCF-7 cancer cells) was ≥ 200 µM.
In the case of `COc1ccc(O)c(C(C)(C)C)c1` [BHA, butylated hydroxyanisole], the antioxidant value in experiment [2] is reported as 2.43 TE.

The values are drawn from patent publication US7763292B2, “Cancer cell growth inhibition by black bean (Phaseolus vulgaris L) extracts” (Instituto Technologico y de Estudios Superiores de Monterrey, priority 2004, dated 2010).
